ChEMBL document CHEMBL2074190, “Grapefruit juice activates P-glycoprotein-mediated drug transport” (Pharm Res, 1999)

Biological target: ATP-dependent translocase ABCB1 (Homo sapiens, UniProt P08183)
Experiment: TP_TRANSPORTER: transepithelial transport (basal to apical) in MDR1-expressing MDCK cells
Format: functional, cell-based
Details: dog

Chain of ATP-dependent translocase ABCB1 (P08183 whole entry): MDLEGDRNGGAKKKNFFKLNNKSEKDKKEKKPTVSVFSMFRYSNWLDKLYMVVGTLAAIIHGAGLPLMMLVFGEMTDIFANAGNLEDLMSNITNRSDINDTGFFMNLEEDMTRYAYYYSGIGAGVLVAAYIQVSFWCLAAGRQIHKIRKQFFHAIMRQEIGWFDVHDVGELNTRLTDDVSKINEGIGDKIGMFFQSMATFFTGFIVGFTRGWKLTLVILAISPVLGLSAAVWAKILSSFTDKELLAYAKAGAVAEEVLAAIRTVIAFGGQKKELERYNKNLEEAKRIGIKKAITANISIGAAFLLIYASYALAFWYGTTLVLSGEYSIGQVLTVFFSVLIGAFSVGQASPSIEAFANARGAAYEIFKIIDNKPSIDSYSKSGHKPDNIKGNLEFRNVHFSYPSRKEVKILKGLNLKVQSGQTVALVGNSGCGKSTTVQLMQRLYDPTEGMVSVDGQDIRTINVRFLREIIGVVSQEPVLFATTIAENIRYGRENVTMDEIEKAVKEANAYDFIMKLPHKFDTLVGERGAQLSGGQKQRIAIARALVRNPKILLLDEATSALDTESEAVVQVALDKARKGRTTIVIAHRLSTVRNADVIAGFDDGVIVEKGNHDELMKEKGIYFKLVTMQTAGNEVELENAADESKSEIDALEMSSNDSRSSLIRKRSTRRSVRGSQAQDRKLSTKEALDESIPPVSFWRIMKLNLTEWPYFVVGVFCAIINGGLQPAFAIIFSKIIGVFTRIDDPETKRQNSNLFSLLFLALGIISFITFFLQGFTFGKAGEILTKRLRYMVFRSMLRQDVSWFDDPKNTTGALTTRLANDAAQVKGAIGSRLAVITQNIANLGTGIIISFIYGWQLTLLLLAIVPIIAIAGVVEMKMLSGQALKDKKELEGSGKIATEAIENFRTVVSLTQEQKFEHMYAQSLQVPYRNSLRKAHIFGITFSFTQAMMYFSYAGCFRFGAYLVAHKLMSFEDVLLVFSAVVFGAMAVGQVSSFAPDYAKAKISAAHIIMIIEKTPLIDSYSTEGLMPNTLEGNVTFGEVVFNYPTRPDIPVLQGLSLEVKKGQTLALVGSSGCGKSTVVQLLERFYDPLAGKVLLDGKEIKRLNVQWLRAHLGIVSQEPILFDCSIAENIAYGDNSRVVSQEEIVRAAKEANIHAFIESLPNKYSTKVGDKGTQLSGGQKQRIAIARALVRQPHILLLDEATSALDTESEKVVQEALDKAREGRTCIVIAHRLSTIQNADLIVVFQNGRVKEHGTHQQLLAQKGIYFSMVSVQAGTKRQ

Row | SMILES | Activity
1 | C[C@H]1O[C@@H](O[C@H]2[C@@H](O)C[C@H](O[C@H]3[C@@H](O)C[C@H](O[C@H]4CC[C@@]5(C)[C@H](CC[C@@H]6[C@@H]5C[C@@H](O)[C@]5(C)[C@@H](C7=CC(=O)OC7)CC[C@]65O)C4)O[C@@H]3C)O[C@@H]2C)C[C@H](O)[C@@H]1O [DIGOXIN] | substrate [+]
2 | CC(C)(C(=O)O)c1ccc(C(O)CCCN2CCC(C(O)(c3ccccc3)c3ccccc3)CC2)cc1 (configuration not stated) [FEXOFENADINE] | substrate [+]
